“Also recorded” adds a separate entry of the source.
Key:
TRAM = test: Immunoblot of PKCε expressing MEF lysates with phospho-specific (Serine 16) TRAM antibody; assay type: cell-based; conditions: stimulation for 30 minutes (LPS 15 and 30 minutes)
Text: Fabgennix (Texas, USA), using a synthetic peptide corresponding to amino acids 7 to 21 of TRAM (KIN SCP LSL SWG KRH) with a phosphoserine incorporated instead of the serine at amino acid 16, generated and purified a phospho-specific antibody towards TRAM phosphorylated on Serine 16. The validity of the antibody was confirmed when the band predicted to the phosphorylated TRAM was not present in samples taken from TRAM-deficient MEFs (data not shown).
The phosphorylation occurred earlier in this cell type than the THP1 cells as the effect was waning by 45 minutes (lane 11) and was not evident at 60 minutes (lane 12). Levels of total TRAM were not altered in the lysates over the time course (FIG. 4c, second panel). Importantly no band was detected in lysates generated from PKCε^−/− MEFs (FIG. 4c, top panel, lane 1-6) and no bands were detected in TRAM-deficient cells attesting to the specificity of the antibody (data not shown). Finally treatment of PKCε expressing MEFs with the TLR2 ligand MALP2 or the TLR3 ligand polyI:C for 30 minutes had no effect (FIG. 4d).

GST-TRAM = test: Kinase assay: GST-TRAM pulldown with THP1 lysates, [γ32P] ATP; assay type: biochemical; conditions: THP1 cells treated with the stimulus before lysis
Method: Kinase assay: THP1 cells were seeded at 2×10^5 cells/ml in a T175 flask (Sarstedt) and incubated overnight at 37° C. The following day 30 ml of cells were treated with and without LPS in 50 ml falcon tubes (Sarstedt) for 1 hour. The cells were collected by centrifugation, washed once in PBS and lysed in 1 ml buffer (10% glycerol (v/v), 50 mM NaF, 20 mM Tris-Cl pH 8.0, 2 mM EDTA, 137 mM NaCl, 1% NP-40, 1 mM PMSF, 10 μg/ml leupeptin, 1 mM Na3VO4) for 10 minutes. The cell debris was centrifuged for 10 min at 13,000 rpm and the supernatant was removed to a fresh tube for use in the kinase assay. 50 μl of the purified GST-TRAM on the Glutathione beads was placed in an eppendorf tube and the appropriate lysate was added to the tube and incubated for 2 hours at 4° C. The beads were spun down at 2,000 rpm for 5 min and then washed three times in kinase buffer (20 mM HEPES, pH 7.5, 10 mM MgAc, 0.03% Trition, 100 μg/ml phosphotidylserine, 20 mM β-glycerol phosphate, 0.01% (w/v) leupeptin and 100 μM Na3VO4). These beads were then resuspended in 30 μl kinase buffer containing 20 μM cold ATP and 5 μCi [γ^32P] […]
TRAM is phosphorylated upon LPS stimulation: TRAM is myristoylated, and in resting cells is located in the membrane (unpublished data). […] The samples were then run on a 10% SDS-PAGE gel, transferred onto nitrocellulose and the incorporated radioactivity was measured using X-ray film. […]

| Substance | TRAM phosphorylation on serine 16 in PKCε expressing MEFs (TRAM) | phosphorylation of GST-TRAM by lysates of stimulated THP1 cells (GST-TRAM) |
| --- | --- | --- |
| MALP2 | had no effect |  |
| PolyI:C | had no effect | phosphorylation of TRAM does not occur; also recorded: This phosphorylation did not occur |

Source: patent US8221992B2, “Assays for determining compounds which modulate TRAM phosphorylation” (Opsona Therapeutics Limited, priority 2005, dated 2012)
